Reference: US20110269811A1, “INHIBITORS OF SEMICARBAZIDE-SENSITIVE AMINE OXIDASE (SSAO) AND VAP-1 MEDIATED ADHESION USEFUL FOR TREATMENT AND PREVENTION OF DISEASES” (priority 2006, published 2011)

Tests used:
[1] = target: T1, A3 (h) (Homo sapiens, UniProt P0DMS8); assay: Receptor binding screen, [^125I]AB-MECA; details: 10 uM Concentration of Compound I-1-Z; read-out: Mean Value, percent inhibition of control specific binding: A3 (h)
T1 construct: expressed in transfected cells; host or cells: HEK-293 cells

[2] = system: α1 (non-selective); assay: Receptor binding screen, [^3H]prazosin; parameters: species or system rat; details: 10 uM Concentration of Compound I-1-Z
Experimental: (§1) For Table 4 below, the specific ligand binding to the receptors is defined as the difference between the total binding and the nonspecific binding determined in the presence of an excess of unlabelled ligand. The results are expressed as a percent inhibition of control specific binding obtained in the presence of Compound I-1-Z. The IC50 values (concentration causing a half-maximal inhibition of control specific binding) and Hill coefficients (nH) were determined by non-linear regression analysis of the competition curves using Hill equation curve fitting. The inhibition constants (Ki) were calculated from the Cheng Prusoff equation (Ki=IC50/(1+(L/KD)), where L=concentration of radioligand in the assay, and KD=affinity of the radioligand for the receptor). In each experiment, the respective reference compound was tested concurrently with Compound I-1-Z in order to assess the assay suitability.

[3] = target: T2, D4.4 (h) (Homo sapiens, UniProt P21917); assay: Receptor binding screen, [^3H]spiperone; details: 10 uM Concentration of Compound I-1-Z; read-out: Mean Value, percent inhibition of control specific binding: D4.4 (h)
T2 construct: expressed in transfected cells; host or cells: CHO cells

[4] = target: T3, ETA (h) (Homo sapiens, UniProt P25101); assay: Receptor binding screen, [^125I]endothelin-1; details: 10 uM Concentration of Compound I-1-Z; read-out: Mean Value, percent inhibition of control specific binding: ETA (h)
T3 construct: expressed in transfected cells; host or cells: CHO cells

[5] = target: T4, μ (h) (MOP) (agonist site) (Homo sapiens, UniProt P35372); assay: Receptor binding screen, [^3H]DAMGO; details: 10 uM Concentration of Compound I-1-Z; read-out: Mean Value, percent inhibition of control specific binding: μ (h) (MOP) (agonist site)
T4 construct: expressed in transfected cells; host or cells: HEK-293 cells
Experimental: as §1

[6] = target: T5, PACAP (PAC1) (h) (Homo sapiens, UniProt P41586); assay: Receptor binding screen, [^125I]PACAP1-27; details: 10 uM Concentration of Compound I-1-Z; read-out: Mean Value, percent inhibition of control specific binding: PACAP (PAC1) (h)
T5 construct: expressed in transfected cells; host or cells: CHO cells

[7] = system: P2Y; assay: Receptor binding screen, [^35S]dATPαS; parameters: species or system rat; details: 10 uM Concentration of Compound I-1-Z
[8] = target: T6, V1a (h) (Homo sapiens, UniProt P37288); assay: Receptor binding screen, [^3H]AVP; details: 10 uM Concentration of Compound I-1-Z; read-out: Mean Value, percent inhibition of control specific binding: V1a (h)
T6 construct: expressed in transfected cells; host or cells: CHO cells
T6 sequence (P37288 whole entry): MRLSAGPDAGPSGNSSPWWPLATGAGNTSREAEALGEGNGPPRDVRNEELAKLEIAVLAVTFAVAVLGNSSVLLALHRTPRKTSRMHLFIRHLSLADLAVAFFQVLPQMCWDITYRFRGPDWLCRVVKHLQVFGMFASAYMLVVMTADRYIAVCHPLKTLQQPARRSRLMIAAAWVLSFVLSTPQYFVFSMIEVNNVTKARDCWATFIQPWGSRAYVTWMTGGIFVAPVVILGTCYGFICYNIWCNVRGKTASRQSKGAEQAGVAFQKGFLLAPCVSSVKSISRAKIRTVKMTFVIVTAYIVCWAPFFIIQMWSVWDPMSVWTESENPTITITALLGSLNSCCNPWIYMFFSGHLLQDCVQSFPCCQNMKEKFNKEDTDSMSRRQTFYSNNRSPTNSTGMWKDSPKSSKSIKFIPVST

T3 sequence (P25101 21-427): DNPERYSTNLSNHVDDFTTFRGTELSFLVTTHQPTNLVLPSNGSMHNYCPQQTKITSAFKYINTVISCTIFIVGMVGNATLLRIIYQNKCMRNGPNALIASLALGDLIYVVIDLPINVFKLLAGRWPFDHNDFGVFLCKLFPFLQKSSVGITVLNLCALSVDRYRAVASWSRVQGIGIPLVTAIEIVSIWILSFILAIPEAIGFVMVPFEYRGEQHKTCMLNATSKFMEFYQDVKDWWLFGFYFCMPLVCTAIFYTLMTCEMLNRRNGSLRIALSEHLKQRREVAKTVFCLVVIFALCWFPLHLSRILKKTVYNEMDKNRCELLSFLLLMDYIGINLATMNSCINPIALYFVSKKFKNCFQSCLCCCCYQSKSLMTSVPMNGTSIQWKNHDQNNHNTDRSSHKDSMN
T1 sequence (P0DMS8 whole entry): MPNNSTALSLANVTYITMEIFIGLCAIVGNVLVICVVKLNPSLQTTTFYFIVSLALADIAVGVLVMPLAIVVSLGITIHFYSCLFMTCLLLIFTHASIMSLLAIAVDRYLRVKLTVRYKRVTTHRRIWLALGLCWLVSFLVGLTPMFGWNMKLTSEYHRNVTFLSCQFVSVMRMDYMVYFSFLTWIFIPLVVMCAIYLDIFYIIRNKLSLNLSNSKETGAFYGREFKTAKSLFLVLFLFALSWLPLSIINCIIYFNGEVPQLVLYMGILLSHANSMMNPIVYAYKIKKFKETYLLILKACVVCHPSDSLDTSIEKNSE
T2 sequence (P21917 whole entry): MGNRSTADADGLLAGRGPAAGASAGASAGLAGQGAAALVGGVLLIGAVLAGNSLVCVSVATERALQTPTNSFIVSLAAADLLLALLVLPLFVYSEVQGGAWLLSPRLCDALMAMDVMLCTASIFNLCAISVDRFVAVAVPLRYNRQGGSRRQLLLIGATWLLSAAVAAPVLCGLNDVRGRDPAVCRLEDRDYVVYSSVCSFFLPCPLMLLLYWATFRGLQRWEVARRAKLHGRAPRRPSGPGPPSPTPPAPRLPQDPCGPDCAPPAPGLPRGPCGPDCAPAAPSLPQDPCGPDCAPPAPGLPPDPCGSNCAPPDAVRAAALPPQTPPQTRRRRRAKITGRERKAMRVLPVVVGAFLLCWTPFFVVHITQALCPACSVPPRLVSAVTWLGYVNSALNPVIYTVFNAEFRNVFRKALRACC
T4 sequence (P35372 whole entry): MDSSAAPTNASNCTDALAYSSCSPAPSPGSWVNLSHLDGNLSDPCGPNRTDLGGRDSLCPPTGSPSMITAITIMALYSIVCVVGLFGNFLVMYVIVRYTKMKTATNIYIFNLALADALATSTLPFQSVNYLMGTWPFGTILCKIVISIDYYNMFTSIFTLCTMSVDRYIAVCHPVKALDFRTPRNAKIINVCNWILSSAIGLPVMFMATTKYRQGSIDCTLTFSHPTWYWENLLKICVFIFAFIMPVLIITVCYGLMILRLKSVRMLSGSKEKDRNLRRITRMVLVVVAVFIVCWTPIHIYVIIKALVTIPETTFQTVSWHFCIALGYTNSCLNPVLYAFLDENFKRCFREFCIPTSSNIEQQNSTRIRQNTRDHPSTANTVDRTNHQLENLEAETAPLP
T5 sequence (P41586 21-468): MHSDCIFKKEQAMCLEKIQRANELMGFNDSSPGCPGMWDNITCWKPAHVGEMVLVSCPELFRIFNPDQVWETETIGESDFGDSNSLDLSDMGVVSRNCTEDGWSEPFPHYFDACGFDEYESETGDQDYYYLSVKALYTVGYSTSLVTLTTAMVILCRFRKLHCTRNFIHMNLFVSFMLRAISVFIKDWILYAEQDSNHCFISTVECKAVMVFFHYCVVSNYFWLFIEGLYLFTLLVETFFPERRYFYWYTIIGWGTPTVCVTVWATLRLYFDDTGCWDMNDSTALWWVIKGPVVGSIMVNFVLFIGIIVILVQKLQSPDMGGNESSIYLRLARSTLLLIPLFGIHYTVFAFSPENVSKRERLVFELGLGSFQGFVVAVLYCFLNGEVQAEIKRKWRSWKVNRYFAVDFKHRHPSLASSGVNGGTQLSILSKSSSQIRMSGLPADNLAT

`COc1ccc(C/C(=C/F)CN)cc1.Cl` [Compound I-1-Z, (Z)-3-Fluoro-2-(4-methoxybenzyl)-allylamine hydrochloride] was tested, and the inhibition at 10 µM [1] was 1%, the “Mean Value, percent inhibition of control specific binding: α1 (non-selective)” value [2] was 8% and the inhibition at 10 µM [3] was 2%. It also gave an inhibition at 10 µM [4] of 8%, an inhibition at 10 µM [5] of 14% and an inhibition at 10 µM [6] of 5%. For the same compound, the “Mean Value, percent inhibition of control specific binding: P2Y” value [7] was −1% and the inhibition at 10 µM [8] was 9%.
